# Source: US12673944B2, “Compounds having inhibitory activity against glucosylceramide synthase or pharmaceutically acceptable salt thereof, processes for preparing the same, and pharmaceutical compositions comprising the same” (YUHAN CORPORATION, priority 2019, dated 2026)
# Key:
# [1] = molecular target: T1, glucosylceramide synthase (GCS) (Homo sapiens, UniProt Q16739); assay: GCS enzyme inhibition assay (A549 cell lysate, NBD C6-ceramide, HPLC fluorescence); format: biochemical; settings: inhibitory activity against GCS, 37° C., 90 minutes
# T1 construct: The obtained supernatant was used; host or cells: A549 cells (lysate supernatant after sonication)
# T1 sequence (Q16739 1-394): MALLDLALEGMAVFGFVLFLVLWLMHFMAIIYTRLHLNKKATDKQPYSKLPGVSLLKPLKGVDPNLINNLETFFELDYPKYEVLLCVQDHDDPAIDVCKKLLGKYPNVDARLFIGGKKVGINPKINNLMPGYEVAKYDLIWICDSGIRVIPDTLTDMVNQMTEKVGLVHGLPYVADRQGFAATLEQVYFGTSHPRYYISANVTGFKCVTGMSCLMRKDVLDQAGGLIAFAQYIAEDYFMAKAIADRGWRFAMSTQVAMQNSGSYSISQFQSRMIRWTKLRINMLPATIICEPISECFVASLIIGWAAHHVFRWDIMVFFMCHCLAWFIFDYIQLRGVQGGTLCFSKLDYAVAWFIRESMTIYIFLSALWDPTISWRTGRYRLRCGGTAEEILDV
# Outline: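 Percent GCS activity was derived from the GlcCer share of Cer plus GlcCer areas, scaled from ibiglustat (0%) to DMSO (100%). Enzyme came from sonicated A549 lysate in 50 mM HEPES pH 7.3; 90 min incubation at 37° C, chloroform/methanol stop and extraction.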
# [2] = tested on: GM1 production in Jurkat cells; assay: cells; format: cell-based; settings: Homo sapiens, Jurkat, 72 h
Structure (SMILES),IC50 [1],IC50 [2]
"O=C(NC1CCOc2cc(-c3cccc4cc[nH]c34)ccc21)O[C@@H]1CN2CCC1CC2 (stereo partly drawn) [Example 47, (S)-quinuclidin-3-yl (7-(1H-indol-7-yl)chroman-4-yl)carbamate]",2.55 nM,10.5 nM
"O=C(NC1CCOc2cc(-c3cc(Cl)ccc3Cl)ccc21)O[C@@H]1CN2CCC1CC2 (stereo partly drawn) [Example 27, (S)-quinuclidin-3-yl (7-(2,5-dichlorophenyl)chroman-4-yl)carbamate]",0.75 nM,0.54 nM
"CCOc1ccc(-c2cc3c(cc2F)C(NC(=O)O[C@@H]2CN4CCC2CC4)C(C)(C)CO3)cc1 (stereo partly drawn) [Example 337, (S)-quinuclidin-3-yl (7-(4-ethoxyphenyl)-6-fluoro-3,3-dimethylchroman-4-yl)carbamate]",0.23 nM,1.2 nM
"Cn1ncc2ccc(-c3ccc4c(c3)OCC(C)(C)C4NC(=O)O[C@@H]3CN4CCC3CC4)cc21 (stereo partly drawn) [Example 196, (S)-quinuclidin-3-yl (3,3-dimethyl-7-(1-methyl-1H-indazol-6-yl)chroman-4-yl)carbamate]",1.25 nM,6.13 nM
"CCOc1ccc(-c2ccc3c(c2)OCC(C)(C)C3NC(=O)O[C@@H]2CN3CCC2CC3)c(C)c1 (stereo partly drawn) [Example 275, (S)-quinuclidin-3-yl (7-(4-ethoxy-2-methylphenyl)-3,3-dimethylchroman-4-yl)carbamate]",0.84 nM,2.6 nM
"COc1ccc(Cl)c(-c2ccc3c(c2)OCCC3(C)NC(=O)O[C@@H]2CN3CCC2CC3)c1 (stereo partly drawn) [Example 301, (S)-quinuclidin-3-yl (7-(2-chloro-5-methoxyphenyl)-4-methylchroman-4-yl)carbamate]",0.8 nM,17.5 nM
"CC(C)c1cccc(-c2ccc3c(c2)OCCC3(C)NC(=O)O[C@@H]2CN3CCC2CC3)c1 (stereo partly drawn) [Example 300, (S)-quinuclidin-3-yl (7-(3-isopropylphenyl)-4-methylchroman-4-yl)carbamate]",0.23 nM,0.9 nM
"CC1(C)COc2cc(-c3ccc4c(c3)CCO4)ccc2C1NC(=O)O[C@@H]1CN2CCC1CC2 (stereo partly drawn) [Example 181, (S)-quinuclidin-3-yl (7-(2,3-dihydrobenzofuran-5-yl)-3,3-dimethylchroman-4-yl)carbamate]",0.5 nM,5.55 nM
"CCc1ccc(-c2ccc3c(c2)OCC(C)(C)C3NC(=O)O[C@@H]2CN3CCC2CC3)cc1 (stereo partly drawn) [Example 273, (S)-quinuclidin-3-yl (7-(4-ethylphenyl)-3,3-dimethylchroman-4-yl)carbamate]",0.46 nM,2.9 nM
"CN1CCOc2cc(-c3ccc4c(c3)OCC(C)(C)C4NC(=O)O[C@@H]3CN4CCC3CC4)ccc21 (stereo partly drawn) [Example 198, (S)-quinuclidin-3-yl (3,3-dimethyl-7-(4-methyl-3,4-dihydro-2H-benzo[b][1,4]oxazin-7-yl)chroman-4-yl)carbamate]",0.66 nM,1.83 nM
"CC1(C)COc2cc(-c3ccc4ncccc4c3)ccc2C1NC(=O)O[C@@H]1CN2CCC1CC2 (stereo partly drawn) [Example 132, (S)-quinuclidin-3-yl (3,3-dimethyl-7-(quinolin-6-yl)chroman-4-yl)carbamate]",1.55 nM,8.95 nM
"CC1(C)COc2cc(-c3cccc(OCc4ccccc4)c3)ccc2C1NC(=O)O[C@@H]1CN2CCC1CC2 (stereo partly drawn) [Example 277, (S)-quinuclidin-3-yl (7-(3-(benzyloxy)phenyl)-3,3-dimethylchroman-4-yl)carbamate]",0.65 nM,0.9 nM
"COc1ccc(-c2ccc3c(c2)OCC(C)(C)C3NC(=O)O[C@@H]2CN3CCC2CC3)cc1 (stereo partly drawn) [Example 206, (S)-quinuclidin-3-yl (7-(4-methoxyphenyl)-3,3-dimethylchroman-4-yl)carbamate]",0.5 nM,0.01 nM
"CC1(C)COc2cc(/C=C/c3ccc(C(F)(F)F)cc3)ccc2C1NC(=O)O[C@@H]1CN2CCC1CC2 (stereo partly drawn) [Example 284, (S)-quinuclidin-3-yl (3,3-dimethyl-7-((E)-4-(trifluoromethyl)styryl)chroman-4-yl)carbamate]",0.91 nM,0.5 nM
"COc1cc2c(cc1-c1cccc(F)c1)OCC(C)(C)C2NC(=O)O[C@@H]1CN2CCC1CC2 (stereo partly drawn) [Example 349, (S)-quinuclidin-3-yl (7-(3-fluorophenyl)-6-methoxy-3,3-dimethylchroman-4-yl)carbamate]",0.32 nM,3.2 nM
"CC(C)Oc1ccc(-c2cc3c(cc2F)C(NC(=O)O[C@@H]2CN4CCC2CC4)C(C)(C)CO3)cc1Cl (stereo partly drawn) [Example 344, (S)-quinuclidin-3-yl (7-(3-chloro-4-isopropoxyphenyl)-6-fluoro-3,3-dimethylchroman-4-yl)carbamate]",0.58 nM,7.3 nM
"COc1cc2c(cc1-c1cc(C)c(OC)c(C)c1)OCC(C)(C)C2NC(=O)O[C@@H]1CN2CCC1CC2 (stereo partly drawn) [Example 365, (S)-quinuclidin-3-yl (6-methoxy-7-(4-methoxy-3,5-dimethylphenyl)-3,3-dimethylchroman-4-yl)carbamate]",1.2 nM,14.5 nM
"COc1ncccc1-c1ccc2c(c1)OCC(C)(C)C2NC(=O)O[C@@H]1CN2CCC1CC2 (stereo partly drawn) [Example 245, (S)-quinuclidin-3-yl (7-(2-methoxypyridin-3-yl)-3,3-dimethylchroman-4-yl)carbamate]",0.95 nM,4.7 nM
"O=C(NC1CCOc2cc(-c3ccc(F)c(C(F)(F)F)c3)ccc21)O[C@@H]1CN2CCC1CC2 (stereo partly drawn) [Example 33, (S)-quinuclidin-3-yl (7-(4-fluoro-3-(trifluoromethyl)phenyl)chroman-4-yl)carbamate]",1.43 nM,10.8 nM
"COc1cc(-c2ccc3c(c2)OCCC3NC(=O)O[C@@H]2CN3CCC2CC3)ccn1 (stereo partly drawn) [Example 68, (S)-quinuclidin-3-yl (7-(2-methoxypyridin-4-yl)chroman-4-yl)carbamate]",3.65 nM,28.3 nM
"CC(C)c1cccc(-c2ccc3c(c2)COCC3NC(=O)O[C@@H]2CN3CCC2CC3)c1 (stereo partly drawn) [Example 313, (S)-quinuclidin-3-yl (7-(3-isopropylphenyl)isochroman-4-yl)carbamate]",3.89 nM,34.5 nM
"O=C(NC1CCOc2cc(-c3ccc(N4CCOCC4)c(F)c3)ccc21)O[C@@H]1CN2CCC1CC2 (stereo partly drawn) [Example 77, (S)-quinuclidin-3-yl (7-(3-fluoro-4-morpholinophenyl)chroman-4-yl)carbamate]",3.33 nM,28.7 nM
"O=C(NC1CCOc2ccc(-c3cccc(OC(F)(F)F)c3)cc21)O[C@@H]1CN2CCC1CC2 (stereo partly drawn) [Example 95, (S)-quinuclidin-3-yl (6-(3-(trifluoromethoxy)phenyl)chroman-4-yl)carbamate]",19.8 nM,513 nM
"CCOc1c(C)cc(-c2ccc3c(c2)OCCC3(C)NC(=O)O[C@@H]2CN3CCC2CC3)cc1C (stereo partly drawn) [Example 308, (S)-quinuclidin-3-yl (7-(4-ethoxy-3,5-dimethylphenyl)-4-methylchroman-4-yl)carbamate]",1.06 nM,4.1 nM
"CC(C)Oc1ccc(-c2ccc3c(c2)OCC(C)(C)C3NC(=O)O[C@@H]2CN3CCC2CC3)cc1Cl (stereo partly drawn) [Example 167, (S)-quinuclidin-3-yl (7-(3-chloro-4-isopropoxyphenyl)-3,3-dimethylchroman-4-yl)carbamate]",0.71 nM,3.28 nM
